# Measurements as given in patent publication US20250249110A1, “ANTIMICROBIAL PEPTIDE DERIVATIVE AND USE THEREOF” (SICHUAN UNIVERSITY, priority 2016, published 2025).
# Where a SMILES comes first, the peptide text is derived from it. The star is where a group is joined. Succinyl(4-O-cholesteryl) = CC(C)CCC[C@@H](C)[C@H]1CC[C@H]2[C@@H]3CC=C4C[C@@H](OC(=O)CCC(=O)*)CC[C@]4(C)[C@H]3CC[C@]12C
# Columns and labels:
# [1] = test system: macrophages, neutrophils and monocytes in the abdominal cavity; assay: Detection of activated immune-related cells in abdominal cavity (flow cytometry); assay type: in vivo, mouse; conditions: 24 h after 200 μL of 1 mg/mL i.p.
# Procedure: Grouping: The mice are randomly divided into two groups (NS group and DP7-C group) with 5 mice in each group.
# Each mouse in the DP7-C group is given 200 μL of 1 mg/mL DP7-C, while each mouse in the NS group is injected with 200 μL of normal saline. The mice of both groups are killed 24 h later. Each mouse is intraperitoneally injected with 5 mL of normal saline. By gently massaging the abdomen, the ascites in the abdominal cavity is aspirated to calculate the cell concentration and total cell count there. The lymphocyte typing of the ascites is detected by a flow cytometry, the percentage of macrophages, neutrophils and inflammatory monocytes in total cells is analyzed, and the number of macrophages, neutrophils and inflammatory monocytes is calculated according to the results of flow cytometry and the total number of cells in ascites.
# [2] = test system: C26 mouse colon cancer peritoneal metastasis; assay: C26 mouse colon cancer peritoneal metastasis model; assay type: in vivo
# Procedure: In order to further characterize the application potential of DP7-C micelles in tumor therapy, we established a C26 mouse colon cancer peritoneal metastasis model and used DP7-C to transmit anti-VEGF siRNA therapeutic genes for therapeutic research. • (1) Establishment of abdominal metastasis model: on day 0, female BALB/c mice aged 6-8 weeks are intraperitoneally injected with 0.1 ml of cell suspension (containing about 1×10^5 C26 cells). • (2) On day 3, mice are randomly divided into 4 groups, 8 mice for each group, and are labeled. • (3) Four groups of mice are intraperitoneally injected with 10 doses of normal saline (blank control group), blank DP7-C micelle (17.5 μg), DP7-C/no-sense control siRNA (Scramble siRNA) complex (17.5 μg/3.5 μg) or DP7-C/VEGF siRNA complex (17.5 μg/3.5 μg) respectively. • (4) On day 20, when the mice in the control group are already very weak, all the mice are killed by cervical dislocation; the tumor tissues in the abdominal cavity as well as the heart, liver, spleen, lung and kidney tissues are immediately collected, weighed and analyzed. The ascites of each group of mice is also collected and measured, and CD31 immunohistochemical staining is performed on tumor tissues of each experimental group. The collected heart, liver, spleen, lung and kidney tissues are analyzed by HE staining.
# [3] = Physical characteristics of DP7-C micelles (Malvin particle size meter, appearance); assay type: physicochemical
# Text: We detected some physical characteristics such as particle size and Zeta potential of DP7-C micelles by the atomic force microscope and Malvin particle size meter. • 1 Atomic force microscope photography: prepare different concentrations of DP7-C solution, add to the mica sheets dropwise and dry naturally. Put the mica sheets coated with DP7-C on the atomic force microscope for photography. • 2 Detection of particle size and Zeta potential: dissolve DP7-C in Milliq water, determine particle size and Zeta potential by Malvin particle size meter, and detect each sample for four times to obtain their average value. • 3 Appearance and solution state of DP7-C: observe the appearance of MilliQ water, DP7-C water solution and lyophilized powder, and take photos with a camera; wherein, a is MilliQ water, b is DP7-C dissolved in aqueous solution, C is the state of DP7-C lyophilized powder after redissolving, and d is the shape and color of DP7-C lyophilized powder.
# YAC-1 cells = assay: NK cell killing activity after immunization (LDH release); assay type: cell-based, mouse; conditions: splenic lymphocytes 48 h after primary immunization
# Procedure: Innate immunity plays an important role in anti-tumor immunity. We detected the killing activity of mouse NK cells after immunization with DP7-C adjuvant.
# After 48 h of primary immunization, kill the mice by the cervical dislocation, and isolate splenic lymphocyte from the lymphocyte separation medium as effector cells.
# Resuscitate and incubate YAC-1 cells, transfer one day before the experiment, and keep 2×10^6/20 ml. Stain with trypan blue. Available when activity is more than 95%.
# • (1) Add target cells and effector cells into a 96-well plate (ratio of target cells to effector cells: 1:25, 1:50, 1:100, 1:200 as per 10,000 target cells per well) and incubate at 37° C. for 4 h. • (2) Centrifuge at 250 g, and take supernatant for LDH releasing test.
# [4] = intraperitoneal injection, 10 doses, day 20
# [5] = Milliq water, Malvin particle size meter
structure (smiles),measurement,setting,value
"CC[C@H](C)[C@H](NC(=O)[C@H](CCCNC(=N)N)NC(=O)[C@H](Cc1c[nH]c2ccccc12)NC(=O)[C@H](CCC(N)=O)NC(=O)[C@@H](NC(=O)CCC(=O)O[C@H]1CC[C@@]2(C)C(=CC[C@H]3[C@@H]4CC[C@H]([C@H](C)CCCC(C)C)[C@@]4(C)CC[C@@H]32)C1)C(C)C)C(=O)N[C@@H](CCCNC(=N)N)C(=O)N[C@H](C(=O)N[C@@H](C)C(=O)N[C@H](C(=O)N[C@H](C(=O)N[C@@H](CCCNC(=N)N)C(=O)N[C@@H](CCCCN)C(N)=O)[C@@H](C)CC)C(C)C)C(C)C [DP7-C, Chol-suc-VQWRIRVAVIRK-NH2] ({Succinyl(4-O-cholesteryl)}-VQWRIRVAVIRK-NH2)",total number of cells in the abdominal cavity,[1],increased significantly
same,percentage of monocytes,"[1]; abdominal cavity, NS 2.7%",32.8%
same,percentage of macrophages,"[1]; abdominal cavity, NS 38.8%",50.8%
same,HE staining of major organ tissues,"[2]; heart, liver, spleen, lung, kidney",no significant pathological changes
same,average tumor weight,[2]; [4],7.94 ± 0.53 g
same,volume of ascites (printed as average tumor weight),[2]; [4],1.17 ± 0.51 mL
same,Zeta potential,[3]; [5],about 28.8±0.27 mV
same,particle size,[3]; [5],about 24.3±1.5 nm
same,solubility in water,[3]; lyophilized powder,soluble in water
same,NK cell killing activity,YAC-1 cells,slightly strong NK cell killing activity
